Entries after “also recorded” stand apart in the source; their conditions may differ. Where no end group is shown, it is not given here.
Assays:
[1] = system: U937 and PC3 cells; test: Subcellular localisation of BODIPY-NaD1 by CLSM; type: cell-based, human; conditions: PI present, 12 minutes
Method: FIG. 2B is a series of micrographs examining the subcellular localisation of BODIPY-NaD1 in U937 and PC3 cells. U937 cells immobilised onto 10% poly-L-lysine coverslips or PC3 cells cultured as adherent monolayers on coverslips, were treated with […] BODIPY-NaD1 in the presence of 1 μg/ml PI for 12 minutes and cells imaged by CLSM. Scale bars represent 10 μm.
Live imaging was performed on a Zeiss LSM-510 confocal microscope using a 40× oil immersion objective in a 37° C./5% CO2 atmosphere. Adherent cells were cultured on coverslips prior to imaging while non-adherent cells were immobilized onto 10% poly-L-lysine-coated coverslips. All cell types were prepared for imaging in RPMI medium containing 0.1% BSA and […] PI. […] In certain experiments, cells were either, stained with PKH67 (Sigma-Aldrich) or transfected with plasmid construct for free GFP or GFP-PH(PLCδ) using Lipofectamine™ 2000 Reagent (Invitrogen) as per manufacturer's instructions prior to imaging. Transmission electron microscopy (TEM) imaging was performed according to a previously described procedure (Adda et al. 2009).

[2] = system: U937 cells; test: BODIPY-NaD1 binding to viable and permeabilised U937 cells (flow cytometry, 7AAD); type: cell-based, human; conditions: 10 μM, 37° C., 30 min
From the text: The percentage of cells in each population (boxed) is indicated.

[3] = Cross-linking (BS3) study of lipid-mediated oligomerisation with PIP2; conditions: 0.5 mM PIP2, 30 min room temperature, SDS-PAGE, immunoblot
Method: (§1) Molecular weight markers are indicated.
(§2) Protein samples at 1 mg ml^−1 (2.5 μl) were incubated with 0.5 mM PIP2 or PA (2.5 μl) at room temperature for 30 min. […] Samples were reduced and denatured, and subjected to SDS-PAGE.

[4] = Cross-linking (BS3) study of lipid-mediated oligomerisation with PA; conditions: 0.5 mM PA, 30 min room temperature, SDS-PAGE, immunoblot
Method: as §1, §2

[5] = as described in PCT/AU2011/000760 and U.S. Ser. No. 13/166,960; cited from earlier work
[6] = system: tumour cells; conditions: as disclosed in PCT/AU2011/000760 and U.S. Ser. No. 13/166,960; cited from earlier work
[7] = system: U937 cells; test: PI uptake membrane permeabilisation assay (flow cytometry); type: cell-based, human; conditions: 30 minutes at 37° C.
Method: FIG. 5B is a graphical representation showing the effect of rNaD1, rNaD1(D2L4A), or rNaD1(D2L5) on the permeabilisation of U937 cells. Cells were incubated with 10 μM of each defensin for 30 minutes at 37° C. upon which 1 μg/ml PI propidium iodide (PI) was added. The number of cells that stained positively for PI was determined by flow cytometry.
Cells were incubated with 10 μM of each defensin for 30 minutes at 37° C. upon which 1 μg/ml PI propidium iodide (PI) was added. The number of cells that stained positively for PI was determined by flow cytometry.
Cells were incubated with 5 μM of each defensin for 30 minutes at 37° C. upon which […] PI propidium iodide (PI) was added. The number of cells that stained positively for PI was determined by flow cytometry.
Unless otherwise stated, cells are re-suspended at a cell concentration of 4×10^5 cells/mL in complete culture RPMI-1640 medium supplemented with 10% FBS, 100 μ/mL penicillin and 100 μg/mL streptomycin, and are added to either a V-bottom 96-well plate or microfuge tubes. Cells are kept at 37° C., unless otherwise stated, during protein addition (5 μL) at various concentrations or the set concentration of 10 μM. Typically, cells are mixed with the heterogeneous defensin of interest and are incubated at 37° C. for 30 min. In certain experiments, cells are also incubated at either 4° C. or 37° C. for 2-60 min prior to flow cytometry analysis. Cells are added to an equal volume of complete culture medium containing 2 μg/mL propidium iodide (PI, Annexin V-FITC Apoptosis Detection Kit, Invitrogen) and are analysed immediately by flow cytometry using a FACSCanto cell sorter (Becton Dickson, Fanklin Lakes, N.J.) and Cell Quest Pro Software (Becton Dickson). Typically, 5000-10000 events per sample are collected and the resultant data is analysed using FlowJo software (Tree Star, Ashland, Oreg.). Cells are gated appropriately based on forward scatter (FSC) and side scatter (SSC), with the viable cells is determined by their ability to exclude PI. […]

[8] = Lipid binding assay on Echelon membrane lipid strips; conditions: anti-NaD1 antibody detection, densitometry
From the text: FIG. 5C is an immunoblot depicting the lipid binding profile of rNaD1, rNaD1(D2L4A), or rNaD1(D2L5). Echelon™ membrane lipid strips were probed with the defensins and binding detected with a rabbit anti-NaD1 antibody followed by a horseradish peroxidase (HRP) conjugated donkey anti-rabbit IgG antibody.
Data is the mean of three replicate experiments±SEM.
Echelon™ membrane lipid strips were probed with the defensins and binding was detected with a rabbit anti-NaD1 antibody followed by a horseradish peroxidase (HRP) conjugated donkey anti-rabbit IgG antibody.
Membrane Lipid Strips™, PIP Strips™ and Sphingo Strips™ (Echelon Biosciences, Salt Lake City, Utah) were incubated with PBS/3% BSA for 1-2 h at RT to block non-specific binding. […] Membrane-bound protein was detected by probing the membrane strips with a rabbit anti-NaD1 polyclonal antibody (diluted 1:2000 with PBS/1% BSA) for 1 h at 4° C., followed by a HRP-conjugated donkey anti-rabbit IgG antibody (diluted 1:2000 with PBS/1% BSA) for 1 h at 4° C. After each antibody incubation, the membrane strips were washed extensively for 60 min at RT with PBS/0.1% Tween-20. Chemiluminescence was detected using the enhanced chemiluminescence (ECL) western blotting reagent (GE Healthcare BioSciences, NSW Australia) and exposed to Hyperfilm (GE Healthcare BioSciences, NSW, Australia) and developed using an Xomat (All-Pro-Imaging). […]

[9] = target: the molecule itself; test: BS3 cross-linking in solution, SDS-PAGE and immunoblot; NaD2 was also efficiently multimerised by PA and not by PIP2
Method: FIG. 4B is an immunoblot depicting the lipid-mediated oligomerisation of the class II defensins NaD1 and TPP3, and the class I defensin NaD2. Each of the defensins at 250 ng/ml were incubated with 0.5 mM PIP2 or PA at room temperature for 30 minutes and samples then treated with the cross-linker bis[sulfosuccinimidyl] suberate (BS³) at 12.5 mM for a further 30 minutes, Samples were reduced and denatured, separated by SDS-PAGE, and examined by immunoblotting with an anti-NaD1 (NaD1 and TPP3) or anti-NaD2 (NaD2) antibody. Molecular weight markers are indicated.

Molecule: BODIPY-NaD1: BODIPY-labelled NaD1 (RECKTESNTFPGICITKPPCRKACISEKFTDGHCSKILRRCLCTKPC; cysteine pairing not given here; also: BODIPY label (position not given here); UniProt Q8GTM0 26-72, looked up)
- subcellular localisation on permeabilised tumor cells [1]: accumulation of BODIPY-NaD1 at the membrane bleb(s), cytoplasm, nucleolus and possibly at certain cytoplasmic organelles
- binding to U937 cells ([2]; 7AAD, flow cytometry): bound to both viable (7AAD negative) and permeabilised (7AAD positive) U937 cells
- membrane permeabilisation of U937 (7AAD) ([2]; compared with unlabelled NaD1): comparable level to unlabelled NaD1

Molecule: RTCESQSHRFKGPCARDSNCATVCLTEGFSGGDCRGFRRRCFCTRPC (listed as Nicotiana alata) [NaD2]
- multimerisation (oligomer formation) mediated by PIP2 [3]: not PIP2
- multimerisation (oligomer formation) mediated by PA [4]: forms oligomers with PA; also recorded: efficiently multimerised by PA
- lipid binding preference / ligand [5]: preferentially binds PA over PIP2; also recorded: does not bind PIP2
- tumour cell killing [6]: does not kill tumour cells

Molecule: R40E: NaD1 mutant, loop 5 residue R40 replaced with glutamic acid (RECKTESNTFPGICITKPPCRKACISEKFTDGHCSKILRECLCTKPC; UniProt Q8GTM0 26-72, looked up, variant R40E)
- permeabilisation of U937 cells (cells stained positively for PI) ([7]; 5 μM of each defensin): greatly reduced ability to permeabilise U937 cells

Molecule: rNaD1: NaD1 purified from P. pastoris (recombinant NaD1) (RECKTESNTFPGICITKPPCRKACISEKFTDGHCSKILRRCLCTKPC; recombinant, Pichia pastoris; UniProt Q8GTM0 26-72, looked up)
- permeabilisation of U937 cells (cells stained positively for PI) ([7]; 10 μM of each defensin): permeabilised U937 cells
- lipid binding profile (lipid bound most strongly / preferred) [8]: bound most strongly to PIP2

Molecule: K36E: NaD1 mutant, loop 5 residue K36 replaced with glutamic acid (RECKTESNTFPGICITKPPCRKACISEKFTDGHCSEILRRCLCTKPC; UniProt Q8GTM0 26-72, looked up, variant K36E)
- permeabilisation of U937 cells (cells stained positively for PI) ([7]; 5 μM of each defensin): greatly reduced ability to permeabilise U937 cells

Molecule: RTCESQSHRFKGPCARDSNCATVCLTEGFSGGDCRGFRRRCFCTRPC (other) [NaD2 (Class I plant defensin)]
- binding result [9]: binds

Reference: patent publication US20150004137A1, “NOVEL FORMS OF PLANT DEFENSINS” (Balmoral Australia Pty Ltd, priority 2011, published 2015)
